Results from patent publication US6355443B1, “4-(4-hydroxystyryl) pyridine-containing substrates for an analyte dependent enzyme activation system” (priority 1999, dated 2002).

Legend:
[1] = target: T1, Horseradish peroxidase (HRP) conjugated wheat germ agglutinin (Armoracia rusticana, UniProt P00433); experiment: Sensitive HRP localization using a 4-(4-hydroxystyryl) pyridine containing compound; details: sections of mouse intestine; for fluorescence labeling of tissue sections after HRP-catalyzed deposition: HRP-conjugated wheat germ agglutinin 0.5 μg/ml, substrate 100 μg/ml, 10 min, 360 nm excitation/>400 nm emission
T1 construct: purchased Sigma; St. Louis, Mo
T1 sequence (P00433 31-338 limits assumed): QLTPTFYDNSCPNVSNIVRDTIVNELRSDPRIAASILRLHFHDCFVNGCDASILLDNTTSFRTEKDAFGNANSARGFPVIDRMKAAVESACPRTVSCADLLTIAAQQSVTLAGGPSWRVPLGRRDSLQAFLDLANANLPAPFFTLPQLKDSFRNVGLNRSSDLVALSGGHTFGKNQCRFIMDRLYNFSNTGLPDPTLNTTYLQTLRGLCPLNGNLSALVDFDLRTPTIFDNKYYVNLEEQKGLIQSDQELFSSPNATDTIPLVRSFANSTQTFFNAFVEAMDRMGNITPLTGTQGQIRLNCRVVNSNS
Description: Sections of paraffin-embedded mouse intestine were deparaffinized and non-specific binding sites blocked by treatment for thirty minutes in PBS-blocking buffer (PBS-BB; 0.1M phosphate buffered saline, pH 7.2; 1.0% bovine serum albumin, 0.2% non-fat powdered milk, and 0.3% Triton X-100). Horseradish peroxidase (HRP) conjugated wheat germ agglutinin (Sigma; St. Louis, Mo.) at a concentration of 0.5 μg/ml in PBS-BB was incubated on sections for one hour at room temperature. Control sections were incubated in PBS-BB alone. Sections were then washed in PBS (three X for five minutes each wash) and reacted for ten minutes at room temperature in a solution containing 4-(4-hydroxystyryl) pyridinium propylsulfonate (HPPS) (Molecular Biosciences; Boulder, Colo.) at 100 μg/ml in TSA Amplification Diluent, (NEN Life Science Products, Inc.; Boston, Mass.). Sections were then washed in PBS (three X for five minutes each wash), mounted in PBS:Glycerol (1:1) and coverslipped. Sections were viewed with a Zeiss Axioskop microscope equipped with epifluorescence and a filter set with excitation/emission characteristics of 360 nm peak excitation/>400 nm long pass emission. Photomicrographs were taken using a Zeiss MC100 camera system.

[2] = target: T1, Horseradish peroxidase (HRP) conjugated wheat germ agglutinin; experiment: Stability of deposited fluorescent reaction product in aqueous vs non-aqueous mounting medium
Description: Sections of paraffin-embedded mouse intestine were deparaffinized and non-specific binding sites were blocked by treatment for thirty minutes in PBS-BB. HRP conjugated wheat germ agglutinin (Sigma), at a concentration of 0.5 μg/ml in PBS-BB, was incubated on sections for one hour at room temperature. Sections were then washed in PBS (three X for five minutes each wash) and were reacted for ten minutes at room temperature in a solution of 4-(4-hydroxystyryl) methylpyridinium tosylate (HMPT) (Molecular Biosciences) at 100 μg/ml in TSA Amplification Diluent (NEN Life Science Products, Inc.). Sections were then washed in PBS (three X for five minutes each wash) and either mounted in PBS:Glycerol (1:1) or dehydrated in graded ethanol solutions (0%, 70%, 95%, 100%, 100% three minutes each) and xylene (two X for three minutes each) mounted in Permount (a non-aqueous mounting medium; Fisher Scientific, Pittsburgh, Pa.) and coverslipped. The fluorescent signal intensity of slides mounted in aqueous (PBS:Glycerol) or non-aqueous (Permount) media was compared using a Zeiss Axioskop microscope equipped with epifluorescence and a 360 nm excitation/>400 nm emission filter set. Photomicrographs were taken using a Zeiss MC100 camera system and standard two second exposures.

| Molecule | concentration of conjugated wheat germ agglutinin used/required for wheat germ agglutinin localization [1] | fluorescence labeling of tissue sections after HRP-catalyzed deposition [1] | fluorescence labeling of tissue sections after HRP-catalyzed deposition ([1]; listed as EPPS) | background signal / signal/noise ratio when mounted in non-aqueous media ([2]; Permount, non-aqueous) | localization of wheat germ agglutinin reactivity ([2]; aqueous and non-aqueous medium) | fluorescence in aqueous solution ([2]; section of mouse intestine, aqueous (FIG. 2A)) | reaction product fluorescence in non-aqueous medium ([2]; section of mouse intestine, non-aqueous (FIG. 2B)) | fluorescence intensity of reaction product in aqueous versus non-aqueous medium ([2]; sections of mouse intestine, PBS:Glycerol (aqueous) vs Permount (non-aqueous), two second exposures) |
| --- | --- | --- | --- | --- | --- | --- | --- | --- |
| 4-(4-hydroxystyryl) pyridinium propylsulfonate [HPPS] | 0.5 µg/mL | intense HPPS fluorescence was localized to intestinal goblet cells | intense EPPS fluorescence localized to intestinal goblet cells | – | – | – | – | – |
| C[n+]1ccc(C=Cc2ccc(O)cc2)cc1.Cc1ccc(S(=O)(=O)[O-])cc1 [HMPT, 4-(4-hydroxystyryl) methylpyridinium tosylate] | – | – | – | background signal is reduced resulting in a better signal/noise ratio | Strong wheat germ agglutinin reactivity was localized to the intestinal epithelium under both conditions | bright fluorescence in aqueous solution | bright reaction product in a non-aqueous medium | equally bright in aqueous (FIG. 2A) and non-aqueous (FIG. 2B) medium |
